Series [1] in a line: Metabolite profiling and quantification in urine (HPLC-MS2 with on-line radioactivity detector). Format: in vivo, humans. The conditions noted are these: human. The method, then: (§1) The study was a single-center, open-label, and non-randomized study with two distinct elements: a run-in phase to establish a more defined dietary background of dietary flavanols and procyanidins and the subsequent ^14C-EC ADME study (Fig. 1B). Participants (n = 12) were enrolled in the run-in phase (day –17 to day –4) and asked to supplement their daily diet for 14 days with a commercially available flavanol-containing cocoa-based drink (250 mg cocoa flavanols; 40 mg of EC). This was followed by a 4-day period (day –4 to 0) of a low-flavanol diet. One day (study day -1) prior to the initialization of the ^14C-EC ADME study, all eligible participants were accommodated under controlled conditions at a metabolic research facility (Covance Clinical Pharmacology Inc., Wisconsin) until completion of the study. Based on the compliance of the first part of the study, 8 participants were selected to participate in the ^14C-EC ADME study. During the ^14C-EC ADME study (Fig. 1B.), volunteers received a low-flavanol, standardized high-fiber diet, and were encouraged to maintain an adequate level of hydration (water ad libitum). Volunteers were asked to fast for 8 h before the initiation of the study and for at least 4 h after the intake of the ^14C-EC test drink (water ad libitum). Venous blood samples were taken using Vacutainer collection tubes, containing potassium EDTA at 0 h (just prior to ^14C-EC ingestion), and at 0.25, 0.5, 1, 1.5, 2, 2.5, 3, 4, 6, 8, 10, 12, 16, 24, 36, and 48 h after test drink consumption. Plasma was obtained by whole blood centrifugation at 2000 × g for 15 min at 5 °C, separated into aliquots and stored at −80 °C until analysis. All urine and feces from the time just prior to the consumption of the test drink were collected at different time intervals for radioactivity and metabolite profiling. Clinical parameters and laboratory evaluations of participants were assessed at screening, on study day –1, and after completing the study, as detailed in Supplementary Methods.
Samples were processed as described previously[18] and analyzed by HPLC-MS^2 in conjunction with an on-line HPLC-radioactivity monitor as described in SI Materials and Methods. Identification of metabolites involved comparing the retention time with authentic standards and MS^2 fragmentation patterns (Supplementary Methods). Quantification of metabolites in urine was based on HPLC radioactivity peak area (limit of quantification: 10^3 dpm). Due to the low levels of radioactivity, quantification in plasma was based on targeted HPLC-MS^2 using standard curves obtained with authentic standards (Supplementary Methods).
HPLC-MS identifications of radiolabeled [2-14C](−)-epicatechin metabolites in urine Urine was analyzed with radioactivity and mass spectrometry (MS) detection using a 250 mm x 4.6 mm i.d. 5 µm Luna Phenyl-Hexyl column (Phenomenex, Macclesfield, UK) […]
formic acid. Metabolite identification was performed by 1) co-chromatography of metabolites with reference compounds and a comparison of their MS fragmentation patterns 2, 2) by comparing m/z fragmentation patterns with earlier in-house observed […]
patterns to databases of metabolites reported in earlier polyphenol feeding studies5-7.
Supplementary Table S2, which also provides information on the MSI MI (Metabolite Standards Initiative – Metabolites Identification) level, a confidence level for identification where level 1 stands for fully elucidated (i.e., by comparison with a standard) and level 2 for a well characterized, but not yet fully structurally elucidated 8

Series [2] is described as follows: SREM profile in plasma after intragastric 14C-EC, mouse. Format: in vivo, C57BL/6 mice. The conditions noted are these: 30 min after 2 mg/kg BW intragastric 14C-EC. The method, then:
(§2) To assess the profile of SREMs in rodents, Sprague-Dawley rats (male, 9–10 week old, 270 ± 16 g of BW) and C57BL/6 mice (20 ± 1 g) were administered by gavage 2 mg/kg BW of ^14C-EC (corresponding to ≈10.6 μCi/rat and 6.7 μCi/mouse). Blood samples were collected 30 min after administration. Plasma was obtained by centrifugation at 4 °C for 15 min at 1800xg, separated in aliquots and analyzed by HPLC as described previously[18] with an on-line radioactivity detector (Radiomatic 610TR Flow System Analyzer, PerkinElmer, Inc., Waltham, Mass).

The nature of series [3]: SREM profile in plasma after intragastric 14C-EC, rat. Format: in vivo, Sprague-Dawley rats. The conditions noted are these: 30 min after 2 mg/kg BW intragastric 14C-EC. The method, then:
as §2

Series [4] is described as follows: Total [2-14C](−)-epicatechin-derived radioactivity in whole blood and plasma after oral intake. Format: in vivo, humans. The conditions noted are these: human. The method, then:
as §1
The 50-mL drink consisted of an aqueous solution of ^14C-EC (specific activity 14.5 μCi μmol^−1) and delivered 60 mg (207 μmol) of EC and 300 μCi (660 × 10^6 dpm) of radioactivity. The drink was prepared one day before consumption to verify correctness of composition and stability. Volunteers received the ^14C-EC test drink (50 mL), followed by 3 × 50 mL of water that was used to rinse the test drink container, and 40 mL of water. The radioactivity remaining in the test drink containers was measured, and the residual radioactivity recovered from each container was subtracted from the amount administered to the corresponding volunteer.
Radioactivity in aliquots of plasma and urine was measured by liquid scintillation counting. Blood and feces were dried and oxidized by combustion using a 307 Sample Oxidizer (Packard Instrument Company, Meriden, NH) before being analyzed by liquid scintillation counting.

Where [5] appears, read: all volunteers, post-consumption.

Values joined by “and” are separate entries in the source; they are usually repeats but may differ in a detail not shown here. Equal entries are not always repeated. Bounds are passed on as bounds.

As to `Oc1cc(O)c2c(c1)O[C@H](c1ccc(O)c(O)c1)[C@H](O)C2` [^14C-EC, [2-^14C](−)-epicatechin], the “Ingested 14C-EC absorbed via the colon / lower intestine” value in series [1] (from urinary RFM excretion) is “≈ 70% and 70%”. In series [1] (from urinary SREM excretion), the “Ingested 14C-EC absorbed from the small intestine” value is on record as 20%. Further, in series [2], the Detection in plasma result is recorded as “No unmetabolized EC was detected”. In series [3], the Detection in plasma result is “No unmetabolized EC and sulfated SREMs were detected”. Moreover, the “Association of whole blood radioactivity with plasma vs cellular components” value in series [4] was “associated, almost exclusively, with plasma”. Besides, in series [4] (setting [5]), the “Time by which radioactivity in plasma fell below the limit of quantitation” value was no more than 72 h and the “Time by which radioactivity in whole blood fell below the limit of quantitation” value is no more than 36 h. The “Time after consumption at which radioactivity was detected in the circulation” value in series [4] (oral 60 mg 14C-EC) is 15 min. For the same compound, the “Total radioactivity in the circulatory system at Cmax, of the amount of 14C-EC ingested” value in series [4] (calculated from whole blood concentration and blood volume) was less than 2%.

These data come from article PMC4929566, “The metabolome of [2-^14C](−)-epicatechin in humans: implications for the assessment of efficacy, safety, and mechanisms of action of polyphenolic bioactives” (Scientific Reports, 2016).
